Data taken from PubChem BioAssay AID602210 (Sanford-Burnham Center for Chemical Genomics, 2012).
The source made the active and inactive calls. How the calls were made is not given here.

Assay: modulators of 2-deoxyglucose-induced H9c2 death, dose response, myocardial damage modulator project, cell-based, ATPlite luminescence, rat, set 2 (AID 602210)
Settings: H9c2 rat cardiomyoblasts, 2-deoxyglucose-induced death, 2 h

Row | Compound | IC50
1 | O=C(CSc1ccc2nnc(-c3ccc(F)cc3)n2n1)N1CCCc2ccccc21 | 16.8 µM (inactive)
2 | CC(C)(C)C(=O)Nc1cccc(-c2nnc(-c3cccc(NC(=O)C(C)(C)C)c3)o2)c1 | 10.7 µM (inactive)
3 | COc1ccc(-c2cc(NC(C)=O)c3ncc(-c4ccc(OC)c(OC)c4)n3c2)cc1OC | 14.8 µM (inactive)
4 | O=C(Nc1ccccc1)c1nc[nH]c1C(=O)NCCCCCCNC(=O)c1[nH]cnc1C(=O)Nc1ccccc1 | 4.44 µM
5 | COc1ccc(C(=O)COC(=O)Cn2[nH]c(=O)c3ccccc3c2=O)c(OC)c1 | 52.7 µM (inactive)
6 | O=C(Cn1nc(C(=O)O)c2ccccc2c1=O)c1c[nH]c2ccccc12 | 40.1 µM (inactive)
7 | COc1ccc(-c2csc(NC(=O)c3cccc(N4C(=O)CCC4=O)c3)n2)cc1OC | 13.1 µM (inactive)
8 | Cc1nc(SCC(=O)N2CCN(c3ccccc3)CC2)c2oc3ccccc3c2n1 | 25.8 µM (inactive)
9 | COc1ccc(Nc2nnc(SCc3cc(=O)n4ccsc4n3)s2)cc1 | 21.7 µM (inactive)
10 | O=C(Nc1cccc2cccnc12)c1ccc2sc([C@H]3C[C@H](O)[C@@H](CO)O3)nc2c1 | 24.3 µM (inactive)
11 | COc1ccccc1NC(=O)COc1ccc(/C=N/NC(=O)c2cccnc2)cc1 | 21.1 µM (inactive)
12 | COc1cc(-c2cc(NC=O)c3ncc(-c4ccc(C(C)=O)cc4)n3c2)ccc1O | > 79 µM (inactive)
13 | COc1ccccc1NC(=O)COc1ccc(C(=O)OCC(=O)NC(C)(C)C)cc1OC | 23.9 µM (inactive)
14 | CC(=O)Nc1ccc(C(=O)N/N=C/c2ccccc2OC(=O)c2ccc(Cl)cc2)cc1 | 14.7 µM (inactive)
15 | O=C(CN1CCN(Cc2ccccc2)CC1)Nc1ccc([N+](=O)[O-])cc1C(=O)Nc1ccccc1F | 24.6 µM (inactive)
16 | COc1ccc(-c2csc(NC(=O)c3ccc(OCC(=O)N4CCOCC4)c(OC)c3)n2)cc1OC | 10.9 µM (inactive)
17 | COc1ccc(OC)c(Nc2nc(N)c([N+](=O)[O-])c(N3CCOCC3)n2)c1 | 27.5 µM (inactive)
18 | O=C(CN1C(=O)C2C3C=CC(C3)C2C1=O)Nc1nc(-c2ccccn2)cs1 (centres undefined) | 24.7 µM (inactive)
19 | CCOc1ccc2[nH]c(=O)c(CN(Cc3nnnn3Cc3ccco3)C3CCCCC3)cc2c1 | 9.18 µM
20 | COc1ccc(CSc2nc3ccccc3c(=O)[nH]2)cc1F | > 79 µM (inactive)
21 | COc1ccc(OCC(O)Cn2c(Br)nc3c2c(=O)[nH]c(=O)n3C)cc1 (centres undefined) | 38.1 µM (inactive)
22 | CC(C)(C)OC(=O)NCC12C=CC(O1)C1C(=O)N(Cc3ccccc3)C(=O)C12 (centres undefined) | 21.5 µM (inactive)
23 | COCCn1c(=NC(=O)c2nc3ccccc3s2)sc2cc(S(C)(=O)=O)ccc21 | > 79 µM (inactive)

Row | Compound | IC50
24 | COc1cc(-c2cc(C(=O)Nc3cccc(C(C)=O)c3)c3ccccc3n2)cc(OC)c1OC | 9.8 µM
25 | CCOC(=O)c1c(C)[nH]c(C)c1C(=O)COc1ncnc2cc([N+](=O)[O-])ccc12 | 19.8 µM (inactive)
26 | COc1cccc(-c2cnc3c(NC=O)cc(-c4cccc(NC(C)=O)c4)cn23)c1 | 6.84 µM
27 | O=C(Nc1cccc(/C=C/c2ccccn2)c1)c1ccc(-n2cncn2)cc1 | > 79 µM (inactive)
28 | CC(C)(C)OC(=O)C[C@@H]1C/C=C\C[C@@H](CC(=O)N[C@H](CO)Cc2ccccc2)C(=O)NC[C@@H](c2ccccc2)OC1=O | 64 µM (inactive)
29 | Cc1ccc(CN(C(=O)CNC(=O)c2cccs2)C(C(=O)NCC2CCCO2)c2ccccc2)cc1 (centres undefined) | 19.1 µM (inactive)
30 | C[C@H]1Cn2cnc(C(=O)N[C@@H](Cc3c[nH]c4ccccc34)C(=O)OC(C)(C)C)c2C(=O)N1 | 24.7 µM (inactive)
31 | CS(=O)(=O)Nc1cccc(NC(=O)c2cccc3c(-c4cccc(C(N)=O)c4)coc23)c1 | 5.97 µM
32 | COc1ccc(CCn2c(=O)c3cccnc3n(Cc3ccc([N+](=O)[O-])cc3)c2=O)cc1OC | 14.5 µM (inactive)
33 | COc1cc(/C=N/n2nnnc2Nc2ccccc2)cc(OC)c1OC | 38.1 µM (inactive)
34 | COc1ccc2cc3cc(C(=O)NCCc4ccc(OC)c(OC)c4)oc3nc2c1 | 10.4 µM (inactive)
35 | Cc1ccc2nsnc2c1S(=O)(=O)N(Cc1ccco1)Cc1cc2cccc(C)c2[nH]c1=O | > 79 µM (inactive)
36 | CC(=O)c1ccc(N2CCN(C(=O)c3cc(-c4cccnc4)nc4ccc(Br)cc34)CC2)cc1 | 15.7 µM (inactive)
37 | Cn1c(=O)c2[nH]c(NN=Cc3cccc(Br)c3)nc2n(C)c1=O | 7.47 µM
38 | Cc1nc2c(c(=O)n1CCC1=CCCCC1)c1nc3ccccc3nc1n2/N=C/c1ccccc1 | 15.1 µM (inactive)
39 | COC(=O)c1cc(C(=O)OCC(=O)N2c3ccccc3NC(=O)C2(C)C)cc([N+](=O)[O-])c1 | 47.6 µM (inactive)
40 | COc1ccc(CC(=O)N(Cc2ccccc2)c2ccccc2)cc1S(=O)(=O)N1CCOCC1 | 8.92 µM
41 | COc1ccc(CCNC(=O)C(=O)NCC2CCCN2S(=O)(=O)c2ccccc2)cc1OC (centres undefined) | 15.4 µM (inactive)
42 | COc1cc(/C=C/C(=O)Nc2ccc3nc4n(c(=O)c3c2)CCCC4)cc(OC)c1OC | 20.6 µM (inactive)
43 | COc1ccc2oc(C(=O)Nc3ccc(N4CCOCC4)cc3)c(C)c2c1 | > 79 µM (inactive)
44 | CC(C)C(=O)N1CCN(c2ccc(NC(=O)COc3ccccc3[N+](=O)[O-])cc2)CC1 | 5.55 µM
45 | COc1cc(NC(=O)c2cc3ccccc3cc2OC)ccc1NC(=O)c1cccs1 | 3.78 µM
46 | O=C(Nc1ccc2nc(N3CCOCC3)sc2c1)c1cc2ccccc2o1 | > 79 µM (inactive)

Row | Compound | IC50
47 | COc1ccccc1CN(C)C(=O)c1cc(-c2cc(OC)c(OC)c(OC)c2)nc2ccccc12 | 10.4 µM (inactive)
48 | Cn1c(=O)n(CCc2ccccc2)c(=O)c2c1nc1n2CCN1Cc1ccco1 | 19.3 µM (inactive)
49 | O=C(NCc1ccco1)C(c1ccccc1)N(C(=O)Cc1cccs1)c1ccccc1F (centres undefined) | 22.9 µM (inactive)
50 | CCOC(=O)C1=C(C)NC(C)=C(C(=O)OCC)C1C(=O)OCC(=O)NC1CCCCC1 | 7.05 µM
51 | COC(=O)c1[nH]c2ccccc2c1NC(=O)CNC1CCCCC1 | 13.5 µM (inactive)
52 | COc1ccc(-n2c(/C=C/c3ccc(O)cc3)nc3ccccc3c2=O)cc1 | 18.5 µM (inactive)
53 | COc1ccc(CNn2c(-c3cccs3)nc3ccccc3c2=O)cc1OC | 12.9 µM (inactive)
54 | O=C(O)c1ccc2c(c1)S(=O)(=O)c1cc(N3CCN(c4cnccn4)CC3)ccc1C2=O | 18.6 µM (inactive)
55 | COc1cccc(Nc2nc3ccccc3n3cnnc23)c1 | 17.5 µM (inactive)
56 | CCOC(=O)c1nc(Nc2ccc(C(=O)OC)cc2)c2ccccc2n1 | > 79 µM (inactive)
57 | CNC(=O)c1ccc(-c2sc3nc(N4CCOCC4)c4c(c3c2N)CCCC4)o1 | > 79 µM (inactive)
58 | Cc1cc(N)n(-c2nc(-c3cccnc3)nc3ccccc23)n1 | 26.1 µM (inactive)
59 | CC(C)(C)C(=O)Nc1ccc(C(=O)N/N=C/c2ccccc2OC(=O)c2ccccc2)cc1 | > 79 µM (inactive)
60 | Cc1ccc(NC(=O)c2cc(-c3cccs3)nc3ccccc23)nc1 | > 79 µM (inactive)
61 | Cc1c(/C=N/NC(=O)c2ccc(O)cc2)c2ccccn2c1C(=O)c1ccc(F)cc1 | > 79 µM (inactive)
62 | Cc1cccc(NC(=O)c2nc[nH]c2C(=O)NCCCCCCNC(=O)c2[nH]cnc2C(=O)Nc2cccc(C)c2)c1 | > 79 µM (inactive)
63 | CC1(C)Cc2c(c(N3CCOCC3)nc3sc4c(NN)ncnc4c23)CS1 | > 79 µM (inactive)
64 | CCn1c(O)c(/C=N/N=C/c2ccccc2)c2ccc(C3=NNC(=O)CC3)cc21 | 10.7 µM (inactive)
65 | O=C(Nc1nc(-c2cc(F)ccc2F)cs1)C1=NN(c2ccccc2)C(=O)CC1 | 14.2 µM (inactive)
66 | COc1ccc2occ(C(=O)c3coc4ccc(O)c(CN(C)C)c34)c2c1 | 68 µM (inactive)
67 | COc1cccc2cc(-c3cc(=O)oc4ccc(OCC(C)=O)cc34)oc12 | > 79 µM (inactive)
68 | COc1ccccc1NC(=O)c1cc(-c2cc(OC)c(OC)c(OC)c2)nc2ccccc12 | 8.68 µM
69 | CCOc1cccc(Nc2cc3n(c(=O)n2)CCc2cc(OC)c(OC)cc2-3)c1 | 28 µM (inactive)

Row | Compound | IC50
70 | COC(=O)c1ccc(C(C(=O)NCc2ccccc2)N(Cc2cccs2)C(=O)c2cnccn2)cc1 (centres undefined) | 13.4 µM (inactive)
71 | CCOC(=O)C1=C(C)NC(C)=C(C(=O)OCC)C1C(=O)OCC(=O)NC(C)C | 25.1 µM (inactive)
72 | COc1cc(C(=O)N/N=C/c2sc(N3CCOCC3)nc2-c2ccccc2)cc(OC)c1OC | 30.9 µM (inactive)
73 | N#Cc1c(-c2ccco2)cc(-c2cccnc2)nc1N | 26.1 µM (inactive)
74 | Cc1nc(N2CCN(c3ccccn3)CC2)c2c(C)c(C(=O)Nc3ccc(F)cc3)sc2n1 | 14.9 µM (inactive)
75 | CCn1c(SCC(=O)Nc2ccccc2N2CCCCC2)nc2c1c(=O)n(C)c(=O)n2C | 16.4 µM (inactive)
76 | CN(C(=O)c1sc2nc(N3CCOCC3)c3c(c2c1N)CCCC3)c1ccccc1 | 9.97 µM
77 | CCOC(=O)c1ccc(-c2ccc(/C=C(\C#N)C(=O)NCC3CCCO3)o2)cc1 (centres undefined) | > 79 µM (inactive)
78 | CCCn1nc(C(=O)Nc2nc(-c3ccccn3)cs2)c2ccccc2c1=O | 9.03 µM
79 | O=c1[nH]c(CSc2nnc(-c3cccnc3)n2C2CCCCC2)nc2ccccc12 | > 79 µM (inactive)
80 | CCC(C)N1C(=O)S/C(=C/c2ccc3c(c2)n(C)c(=O)n3C)C1=O (centres undefined) | > 79 µM (inactive)
81 | COc1cc(-c2cc3nc(NCCc4ccc(S(N)(=O)=O)cc4)ccn3n2)cc(OC)c1OC | 15.6 µM (inactive)
82 | COc1ccc2[nH]c(=O)c(CN(CC3CCCO3)S(=O)(=O)c3ccccc3F)cc2c1 (centres undefined) | 19.2 µM (inactive)
83 | COc1ccc(CCNC(=O)c2cc3c(C)nccc3[nH]c2=O)cc1OC | 20.7 µM (inactive)
84 | CCOC(=O)C(Cc1ccc(NC(=O)/C(=C/c2ccc(OC(C)=O)cc2)NC(C)=O)cc1)N1C(=O)c2ccccc2C1=O (centres undefined) | 15.6 µM (inactive)
85 | CCC(c1nnnn1Cc1ccccc1)N1CCC(n2c(=O)[nH]c3ccccc32)CC1 (centres undefined) | 1.98 µM
86 | COc1ccc(-c2cc(-c3nnc(COC(=O)C4CC4)o3)c3ccccc3n2)cc1OC | 8.35 µM
87 | CCOC(=O)C1CCN(C(c2cc3c(C)ccc(C)c3[nH]c2=O)c2nnnn2C2CCCCC2)CC1 (centres undefined) | 19.2 µM (inactive)
88 | COc1cccc(Nc2nc3ccccc3n3nnnc23)c1 | > 79 µM (inactive)
89 | CC(C)c1ccccc1NC(=O)COC(=O)c1c2c(nc3ccccc13)CCN(Cc1ccccc1)C2 | 7.98 µM
